In patent US20160045498A1, “METHODS OF TREATING DISEASES CHARACTERIZED BY EXCESSIVE WNT SIGNALLING” (THE WALTER AND ELIZA HALL INSTITUTE OF MEDICAL RESEARCH, priority 2013, published 2016):

Experiments:
[1] = test system: intestinal organoids; experiment: Organoid culture, crypt formation; assay type: cell-based, mice; settings: S3I-201 7.5 μM from day 3 after seeding
Experimental: […] Arrows point to budding crypt-like structures. Scale bar=50 μm.
d Enumeration of crypts on individual organoids from experiment illustrated in FIG. 1c. (*p≦0.018; Two-sided t-test on triplicate cultures and repeated).
Crypts from small intestines were harvested, washed and were resuspended at 2000 crypts/ml of matrigel (BD Biosciences) and 50 μL was dispensed in each well of a 24-well plate. Once the matrigel had set, medium was added and the organoids cultured for seven days as described (Sato et al., 2009). Experiments were performed in triplicates and repeated.
Organoid cultures were imaged on a Nikon Ti-E microscope using DIC contrast with a 10x PlanApo NA0.3 objective. A focal stack of images was collected (10 μm apart) and processed through the Best Focus function of MetaMorph v7.7.7 (Molecular Devices, USA) to generate the final image of individual Organoids.

[2] = test system: SW480 cells; experiment: Soft agar colony growth assay, SW480; assay type: cell-based, human; settings: SW480, 10 days; AZD1480 1 μM, S3I-201 50 μM, IL11 10 ng/ml
Experimental: (§1) e Photograph of SW480 and SW480^APC CRC cells grown for 10 days under colony forming conditions in soft agar in the presence of vehicle or 1 μM of Jak2 inhibitor AZD1480 (Jak2i) (Scale bar=200 μm)
(§2) f Colony forming capacity of an isogenic pair of SW480 cells scored 10 days after the indicated treatment. (*p≦0.04; triplicate cultures and repeated).
(§3) SW480 and SW480^APC cells (Faux et al., 2004) were seeded in 2 ml of RPMI media supplemented with 10% FBS and 1% penicillin/streptomycin in 35 mm culture dishes at a density of 2×10^5 cells per dish. Three days later cultures were exposed to AZD1480 (1 μM) for 15 min. Co-immunofluorescence was then performed with antibodies to rabbit phospho-Stat3 (Tyr705, Santa Cruz #9134s, 1:200 dilution) and mouse β-catenin (Transduction Laboratories, 1:400). Colony formation assays of SW480 cells in soft agar were performed as described (Faux et al., 2004) in the presence of either AZD1480, (1 μM), the Stat3 inhibitor S3I-201 (Biovision, 50 μM) or recombinant human IL11 (Genetics Institute, 10 ng/ml). All experiments were performed in triplicates and repeated at least once. Vehicle was methylcellulose.

[3] = test system: SW480^APC cells; experiment: Soft agar colony growth assay, SW480APC; assay type: cell-based, human; settings: 10 days, AZD1480 1 μM, S3I-201 50 μM, IL11 10 ng/ml
Experimental: as §1, §2, §3

[4] = test system: intestinal tumours; experiment: Intestinal tumour burden after tamoxifen-induced conditional Apc deletion in Lgr5CreERT2;Apcfl/fl mice; assay type: in vivo; settings: Lgr5CreERT2;Apcfl/fl mice, CYT387 30 mg/kg oral gavage
Experimental: e Quantification of intestinal tumour burden of mice using the Metamorph analysis tool (Barker et al., 2009) after tamoxifen-induced conditional Apc deletion in adult Lgr5^CreERT2;Apc^fl/fl mice that also received daily administration of AZD1480 (30 mg/kg) or vehicle during this time. (*p≦0.04; n=3 mice).
d Intestinal tumour burden 5 weeks after tamoxifen-induced conditional Apc deletion in adult Lgr5^CreERT2;Apc^fl/fl mice that also received daily administration of AZD1480 (Jak2i; 30 mg/kg) or vehicle during this time. Higher magnifications of the boxed areas are provided and arrows point to tubular adenomas whilst arrowheads point to micro-adenomas. Scale bars=1 mm.
10 week old Lgr5CreERT2;Apcfl/fl mice received four i.p injections with tamoxifen (10 mg/ml; 300 ul, 200 ul, 200 ul, 200 ul) over four consecutive days. Three days after the last injection, mice received daily oral gavages with either vehicle (tap water, pH 2.0) or CYT387 (30 mg/kg) for four weeks. Regime was 5 days treatment followed by 2 days off treatment.
Hematoxilin and Eosin-stained sections were scanned using an Aperio ScanScope XT (Aperio, USA) pathology slide scanner with a 20x PlanApo NA0.6 objective and areas of interest were extracted using Aperio ImageScope software v11.1.2.760. The area of individual tumors was outlined using MetaMorph v7.7.7 and standardized against the entire length of the colon section as described (Barker et al., 2009).

[5] = biological target: TYK2 (Homo sapiens, UniProt P29597); settings: WO2012062704; cited from earlier work
Sequence of TYK2 (P29597 whole entry, species assumed): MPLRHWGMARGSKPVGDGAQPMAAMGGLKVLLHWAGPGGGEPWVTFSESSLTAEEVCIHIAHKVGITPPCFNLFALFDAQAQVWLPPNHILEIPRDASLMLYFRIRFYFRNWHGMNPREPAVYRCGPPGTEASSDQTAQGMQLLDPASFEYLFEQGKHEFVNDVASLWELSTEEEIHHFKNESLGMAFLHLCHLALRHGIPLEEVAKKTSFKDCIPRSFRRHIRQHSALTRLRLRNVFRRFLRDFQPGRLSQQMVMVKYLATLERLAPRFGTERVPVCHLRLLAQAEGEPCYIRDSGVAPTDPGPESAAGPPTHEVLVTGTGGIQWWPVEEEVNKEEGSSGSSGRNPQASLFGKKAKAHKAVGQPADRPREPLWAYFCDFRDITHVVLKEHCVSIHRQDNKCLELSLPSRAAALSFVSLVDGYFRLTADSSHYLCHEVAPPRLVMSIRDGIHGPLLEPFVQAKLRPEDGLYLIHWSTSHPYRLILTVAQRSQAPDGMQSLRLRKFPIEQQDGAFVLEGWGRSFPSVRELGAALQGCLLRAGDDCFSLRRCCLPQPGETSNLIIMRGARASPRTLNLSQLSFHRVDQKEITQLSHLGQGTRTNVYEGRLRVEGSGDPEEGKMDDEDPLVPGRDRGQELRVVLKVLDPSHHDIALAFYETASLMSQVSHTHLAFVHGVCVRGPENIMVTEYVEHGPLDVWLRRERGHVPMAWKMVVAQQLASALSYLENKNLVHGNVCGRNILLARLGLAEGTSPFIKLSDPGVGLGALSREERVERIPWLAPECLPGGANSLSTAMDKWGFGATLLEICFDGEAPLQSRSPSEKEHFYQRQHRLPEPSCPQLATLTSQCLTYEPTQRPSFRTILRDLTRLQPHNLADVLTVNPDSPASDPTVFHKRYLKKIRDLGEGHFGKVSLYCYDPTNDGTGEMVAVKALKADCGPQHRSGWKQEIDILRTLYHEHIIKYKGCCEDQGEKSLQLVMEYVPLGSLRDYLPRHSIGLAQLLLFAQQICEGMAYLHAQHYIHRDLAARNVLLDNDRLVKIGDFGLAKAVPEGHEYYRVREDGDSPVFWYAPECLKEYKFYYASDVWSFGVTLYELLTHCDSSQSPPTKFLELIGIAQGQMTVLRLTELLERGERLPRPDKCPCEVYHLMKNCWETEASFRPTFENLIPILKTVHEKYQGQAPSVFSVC

[6] = test system: SW480 cells; experiment: p-STAT3 / β-CATENIN immunofluorescence and SOCS3 RT-qPCR in SW480 cells; assay type: cell-based, human; settings: SW480, RT-qPCR; AZD1480 1 μM, IL11 10 ng/ml
Experimental: (§4) d Immunofluorescence staining for β-CATENIN or tyrosine-705 phosphorylated STAT3 in an isogenic pair of SW480 cells grown in the presence of 1 μM AZD1480 (Jak2i) or vehicle. SW480 cells are APC mutant and lack expression of functional APC protein, while SW480^APC cells have been reconstituted to express wild-type APC. Scale bar=20 μm.
(§5) g RT-qPCR expression analysis for the STAT3 target gene SOCS3 in SW480 and SW480^APC CRC cells grown for 10 days under colony forming conditions in soft agar in the presence of the indicated treatment. Expression in the vehicle-treated cultures was arbitrarily set as 1. (*p≦0.04; triplicate cultures in each of two repeats).
as §3
(§6) Gene expression analysis by RT-qPCR was performed using the SybrGreen method (ABI) as described previously (Phesse et al., 2008). Fold change was calculated using the 2^−ΔΔCT method (Livak et al., 2001). Protein expression was analysed by Western blot by transferring SDS-PAGE separated protein lysates to nitrocellulose membrane and blocked either in 5% non-fat milk powder and probed with antibodies detecting p16 (Santa Cruz; #sc-467), Bmi1 (Millipore #[…]), Actin (Sigma; #A2066) or Gapdh (Santa Cruz; #sc-69778). All antibodies were diluted 1:1000 in BSA or non-fat milk powder and incubations were performed overnight.

[7] = test system: SW480^APC cells; experiment: p-STAT3 immunofluorescence and SOCS3 RT-qPCR in SW480APC cells; assay type: cell-based, human; settings: RT-qPCR, AZD1480 1 μM, IL11 10 ng/ml
Experimental: as §4, §5, §3, §6

[8] = test system: IECs; experiment: RT-qPCR of IECs after i.p. injection of recombinant IL-11; assay type: in vivo; settings: gp130^F/F mice, 30 minutes after i.p. 5 μg recombinant IL-11
Experimental: a RT-qPCR expression analysis for Socs3 and Bmi1 in IECs isolated from gp130^F/F mice 30 minutes after an i.p. injection of 5 μg of recombinant IL-11 (p=0.04; n=3 mice).
as §6

## Cc1ccc(S(=O)(=O)OCC(=O)Nc2ccc(C(=O)O)c(O)c2)cc1 [S3I-201]
[1]
  crypt formation of organoids: reduced
[2]
  colony formation in soft agar: strongly impaired
[3]
  colony formation in soft agar: did not affect colony formation

## N#CCNC(=O)c1ccc(-c2ccnc(Nc3ccc(N4CCOCC4)cc3)n2)cc1 [CYT387]
[4]; 4 weeks
  morphology of lesions: retained the morphology of the growth arrested microadenomas
[4]; 4 weeks (5 days on, 2 off), vehicle: large tubular adenomas
  intestinal tumour burden (histological assessment): few small emerging lesion

## COc1ccc(-c2nc(NC(=O)C3CC3)ncc2C)cc1F
[5]
  selectivity for TYK2: > 100 fold

B1: IL-11: recombinant gp130 cytokine IL-11 (Genetics Institute) (protein, UniProt P20809 22-199, looked up)
Interleukin-11: PGPPPGPPRVSPDPRAELDSTVLLTRSLLADTRQLAAQLRDKFPADGDHNLDSLPTLAMSAGALGALQLPGVLTRLRADLLSYLRHVQWLRRAGGSSLKTLEPELGTLQARLDRLLRRLQLLMSRLALPQPPPDPPAPPLAPPSSAWGGIRAAHAILGGLHLTLDWAVRGLLLLKTRL
[6]
  SOCS3 expression: increased SOCS3 expression
[7]
  SOCS3 expression: increased SOCS3 expression
[2]
  colony formation in soft agar: enhanced colony formation
[3]
  colony formation in soft agar: enhanced colony formation
[8]
  Bmi1 expression in IECs: rapidly induced
  Socs3 expression in IECs: rapidly induced
